Laboratory results as given in patent US9056899B2 (priority 2008, dated 2015).
Converted amounts (≈) assume the structure as drawn.

Tests used:
E. coli EMG2 [1] = test: Antibiotic resistance assay; type: cell-based; conditions: 30 ng/mL ofloxacin 24 hours; phage (10^9 PFU/mL) added for the last 12 hours where named
Method: Antibiotic resistance assay. To analyze the effect of subinhibitory concentrations of ofloxacin on the development of antibiotic-resistant mutants, the inventors grew 1:10^8 dilutions of overnight EMG2 in LB media containing either no ofloxacin (FIG. 4) or 30 ng/mL ofloxacin (FIG. 7). After 12 hours of growth at 37° C. and 300 rpm, the inventors split the cells grown in no ofloxacin into 100 uL aliquots with no ofloxacin in 60 wells in 96-well plate format (Costar 3370; Fisher Scientific, Pittsburgh, Pa.). The inventors also split the cells grown in 30 ng/mL ofloxacin into 100 uL aliquots in 60 wells with either no phage and 30 ng/mL ofloxacin (FIG. 7B), φunmod phage and 30 ng/mL ofloxacin (FIG. 7C), and φlexA3 and 30 ng/mL ofloxacin (FIG. 7D) in 96-well plate format. The inventors placed the 96-well plates in 37° C. and 300 rpm with plastic bags to minimize evaporation. After 12 hours of treatment, the inventors plated cultures from each well on LB agar+100 ng/mL ofloxacin to select for mutants that developed resistance against ofloxacin. To compare results, the inventors plotted histograms of the number of resistant bacteria found in each well in FIGS. 4 and 8.

E. coli EMG2 [2] = test: Survival of mice infected with bacteria; type: in vivo; conditions: 8.8×10^7 CFU/mouse i.p.; 1 hour later i.v. 0.2 mg/kg ofloxacin with or without 10^9 PFU/mouse phage; observed 5 days
Method: After 1 hour, the mice received either no treatment or intravenous treatment with no phage, unmodified phage φunmod, or engineered phage φlexA3 with 0.2 mg/kg ofloxacin. 10^9 PFU/mouse phage was used.
Increasing Survival of Mice Infected with Bacteria. To determine the clinical relevance of antibiotic-enhancing phage in vivo, the inventors applied the engineered phage φlexA3 with ofloxacin to prevent death in mice infected with bacteria. Mice were injected with E. coli EMG2 intraperitoneally 1 hour prior to receiving different intravenous treatments (FIG. 3A). Eighty percent of mice that received φlexA3 with ofloxacin survived, compared with 50% and 20% for mice that received φunmod plus ofloxacin or ofloxacin alone, respectively (FIG. 3B).

E. coli EMG2 [3] = test: Ofloxacin killing assay; type: cell-based; conditions: 60 ng/mL ofloxacin, no phage, 6 hours of treatment
Method: Determination of colony forming units. To obtain CFU counts, 150 μL of relevant cultures were collected, washed with 1× phosphate-buffered saline (PBS), recollected, and resuspended in 150 μL of 1×PBS. Serial dilutions were performed with 1×PBS and sampled on LB agar plates. LB agar plates were incubated at 37° C. overnight before counting.
Ofloxacin killing assay. To determine the adjuvant effect of engineered phage (FIG. 1B, FIG. 3A and FIG. 3D), the inventors grew 1:500 dilutions of overnight EMG2 cells for 3 hours and 30 minutes at 37° C. and 300 rpm to late-exponential phase and determined initial CFUs. Then, the inventors added 60 ng/mL ofloxacin by itself or in combination with 10^8 PFU/mL bacteriophage (unmodified φunmod or engineered φLexA, φSoxR, φcsr, φompF, or φCsr-ompF phage) and treated at 37° C. and 300 rpm. At indicated time points, the inventors determined CFUs as described above. Mean killing (Δlog10 (CFU/mL)) was determined by subtracting mean initial log10 (CFU/mL) from mean log10 (CFU/mL) after treatment in order to compare data from different experiments. This protocol was replicated with E. coli RFS289 to determine the ofloxacin-enhancing effect of engineered φlexA3 phage against antibiotic-resistant bacteria (FIG. 2). […]

E. coli EMG2 [4] = test: Minimum inhibitory concentration of ofloxacin; type: cell-based; conditions: Escherichia coli, data not shown

In the case of `CC1COc2c(N3CCN(C)CC3)c(F)cc3c(=O)c(C(=O)O)cn1c23` (stereo not shown) [ofloxacin], the “number of mutants resistant to 100 ng/mL ofloxacin (median of 60 samples)” value (E. coli EMG2 [1]) is reported as 1592, the mice that survived (E. coli EMG2 [2]) is reported as 20% and the “reduction of bacteria exposed only to ofloxacin” value (E. coli EMG2 [3]) is reported as “about 1.7 log10 (CFU/mL)”. It also gave an MIC (E. coli EMG2 [4]) of 0.06 µg/mL (≈ 0.166 µM).
